Reference: patent US6399051B2, “Method and agents for permanently styling hair, with a base consisting of N,N-disubstituted mercaptoacetamides” (priority 1997, dated 2002)

What was measured:
[1] = 20 min at 50° C., relative to glycerol monothioglycolate solution pH 9 = 100%; for Standardized Wave Stability WSN pH = 7: waving solution pH 7, 87 mmol reducing agent/100 g; for Standardized Wave Stability WSN pH = 8: waving solution pH 8, 87 mmol reducing agent/100 g; for Standardized Wave Stability WSN pH = 9: waving solution pH 9, 87 mmol reducing agent/100 g

| Compound | Standardized Wave Stability WSN pH = 7 [1] [%] | Standardized Wave Stability WSN pH = 8 [1] [%] | Standardized Wave Stability WSN pH = 9 [1] [%] | pKa (pKa determination (H2O)) |
| --- | --- | --- | --- | --- |
| CN(C)C(=O)CS [Mercaptoacetamide 1, N,N-Dimethylmercaptoacetamide] | 81 | 98 | 98 | – |
| Thiolactic acid [reference compound] | 57 | 50 | 70 | – |
| CCN(CCO)C(=O)CS [Mercaptoacetamide 4, N-Ethyl-N-2′-hydroxyethylmercaptoacetamide] | – | – | – | 7.604 |
| CCCCN(C)C(=O)CS [Mercaptoacetamide 3, N-Butyl-N-methylmercaptoacetamide] | 63 | 67 | 87 | 7.873 |
| CCN(CC)C(=O)CS [Mercaptoacetamide 2, N,N-Diethylmercaptoacetamide] | 83 | 98 | 106 | – |
